Measured values published in publication PMC12118186 (2023).
Values belong to the compound of their own block, whether it stands above or below them.

What was measured:
[1] = tested on: SA1 (DNA, aptamer) ACGACCTGACTTCCCATGGGATCTTCACTTAAATGGTCGT; experiment: ThT fluorescence displacement titration; conditions: 100 mM Na+, pH 6.0, 1 μM DNA; for binding: 1 mM Mg2+, MES, 2 μM thioflavin T, 30 μM compound
[2] = tested on: SA1 (DNA, aptamer) ACGACCTGACTTCCCATGGGATCTTCACTTAAATGGTCGT; experiment: fluorescence enhancement; conditions: 100 mM Na+, 1 mM Mg2+ (Figure 2 legend; methods: 5 mM); 10 mM MES, pH 6.0; 1 μM DNA, 2 μM thioflavin T; described as nonspecific
[3] = tested on: SA1 (DNA, aptamer) ACGACCTGACTTCCCATGGGATCTTCACTTAAATGGTCGT; experiment: ITC; conditions: 100 mM Na+, 5 mM Mg2+; 10 mM MES, pH 6.0, 25°C; one-site fit; 20 μM aptamer
[4] = tested on: SA2 (DNA, aptamer) ACGACGGGGGACCGGAAACAAGTGCAAAACGCTTCGTCGT; experiment: ThT fluorescence displacement titration; conditions: 100 mM Na+, 1 mM Mg2+ (Figure 2 legend; methods: 5 mM); 10 mM MES, pH 6.0; apparent; tracer 2 μM thioflavin T; signal change only about 20%

binding [1]: no
SMILES: CC(=O)Oc1ccccc1C(=O)O

binding [2]: yes
SMILES: Cc1ccc2c(c1)sc(-c1ccc(N(C)C)cc1)[n+]2C

binding [1]: weak
SMILES: O=C(O)c1ccc(O)cc1

Kd [3]: 26.7 ± 5.6 µM
Kd ([1]; 1 mM Mg2+ (Figure 2 legend; methods: 5 mM), 10 mM MES, apparent, tracer 2 μM thioflavin T): 5.8 µM
Kd [4]: 11 µM
SMILES: O=C(O)c1ccccc1O
